Measurements reported in paper PMC6017873 (Molecules : A Journal of Synthetic Chemistry and Natural …, 2018).

Columns and labels:
SIRT1 = molecular target: T1, SIRT1 (Homo sapiens, UniProt Q96EB6); design: method as in PMID 28475330; conditions: reference inhibitors, same experimental conditions; cited from earlier work
T1 sequence (Q96EB6 1-747): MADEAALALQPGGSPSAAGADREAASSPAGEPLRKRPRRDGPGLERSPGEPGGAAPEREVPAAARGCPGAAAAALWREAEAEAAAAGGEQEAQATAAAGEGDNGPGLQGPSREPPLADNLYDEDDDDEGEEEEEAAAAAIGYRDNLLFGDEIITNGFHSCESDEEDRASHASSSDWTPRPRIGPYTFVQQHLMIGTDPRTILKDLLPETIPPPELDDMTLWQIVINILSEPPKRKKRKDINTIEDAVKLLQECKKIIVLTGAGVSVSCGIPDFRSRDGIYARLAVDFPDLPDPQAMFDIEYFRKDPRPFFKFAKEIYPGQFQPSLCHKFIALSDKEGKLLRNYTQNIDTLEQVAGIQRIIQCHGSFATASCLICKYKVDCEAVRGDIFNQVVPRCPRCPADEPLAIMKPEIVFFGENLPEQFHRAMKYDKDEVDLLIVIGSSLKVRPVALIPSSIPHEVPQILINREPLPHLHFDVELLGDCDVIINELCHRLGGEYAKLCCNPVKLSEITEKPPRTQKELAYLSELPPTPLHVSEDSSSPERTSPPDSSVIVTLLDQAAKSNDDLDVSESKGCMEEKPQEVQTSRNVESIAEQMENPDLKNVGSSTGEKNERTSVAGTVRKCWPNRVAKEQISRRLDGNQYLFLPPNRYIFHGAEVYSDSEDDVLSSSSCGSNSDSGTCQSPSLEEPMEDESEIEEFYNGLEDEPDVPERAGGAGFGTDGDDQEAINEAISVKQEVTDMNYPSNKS

SIRT3 = molecular target: T2, SIRT3 (Homo sapiens, UniProt Q9NTG7); design: method as in PMID 28475330; conditions: cited from earlier work
T2 sequence (Q9NTG7 1-399): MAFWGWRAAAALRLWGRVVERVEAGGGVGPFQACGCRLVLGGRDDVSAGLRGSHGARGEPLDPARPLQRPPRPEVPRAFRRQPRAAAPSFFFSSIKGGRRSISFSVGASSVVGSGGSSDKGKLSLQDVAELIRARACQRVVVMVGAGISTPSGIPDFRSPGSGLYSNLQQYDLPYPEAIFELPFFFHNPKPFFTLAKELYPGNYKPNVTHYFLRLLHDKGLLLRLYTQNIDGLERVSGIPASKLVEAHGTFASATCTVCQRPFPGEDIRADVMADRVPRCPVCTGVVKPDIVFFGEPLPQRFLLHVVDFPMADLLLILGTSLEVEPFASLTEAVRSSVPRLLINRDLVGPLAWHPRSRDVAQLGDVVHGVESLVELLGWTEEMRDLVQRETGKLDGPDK

K-562 cells = assay: Acetylation of histone H4 and α-tubulin by Western blot, K-562; format: cell-based, human; conditions: K-562, 5 or 50 µM
Procedure: Total proteins were extracted using the MPER® reagent (Thermo-scientific, […], Belgium) supplemented by 1× protease inhibitor cocktail (Complete EDTA-free, Roche, Prophac, Luxembourg, Luxembourg) according to manufacturer's instructions. Histones were extracted as previously described. Western blots were carried out as previously reported. Anti-acetylated α-tubulin (sc-23950) was from Santa Cruz Biotechnology (Tebubio, Boechout, Belgium); anti-acetylated histone H4 (06-866), anti-acetylated histone […] K-562 cells were treated with […] Acetylation of histone H4 (AcH4) and α-tubulin (Ac α- tubulin) was analyzed by Western Blot. β-actin and histone H1 were used as loading controls for the analysis of total and acid extracts, respectively. Blots are representative of three independent experiments. […]

[1] = reference inhibitors, same experimental conditions

## N#C/C(=C\c1ccc(-c2cc(Cl)ccc2Cl)o1)C(=O)Nc1cccc2ncccc12 [AGK2]
SIRT1
  IC50: 98.1 ± 2.4 µM

## Cc1ccc(C(=O)Nc2ccc(S(=O)(=O)O)c3cc(S(=O)(=O)O)cc(S(=O)(=O)O)c23)cc1NC(=O)c1cccc(NC(=O)Nc2cccc(C(=O)Nc3cc(C(=O)Nc4ccc(S(=O)(=O)O)c5cc(S(=O)(=O)O)cc(S(=O)(=O)O)c45)ccc3C)c2)c1 [Suramin, suramin]
SIRT3; at 100 µM
  remaining SIRT3 enzymatic activity compared to the control set to 100%: 70%
SIRT3; [1]
  IC50: > 100 µM
  IC50 SIRT3: inactive
K-562 cells
  histone H4 or α-tubulin acetylation: fails to induce histone H4 or α-tubulin acetylation
K-562 cells; listed as suramin
  histone H4 or α-tubulin acetylation: failed to induce any increase in histone or α-tubulin acetylation
